{"source": "patent US7579469B2", "about": "“Glucocorticoid mimetics, methods of making them, pharmaceutical compositions, and uses thereof” (Boehringer Ingelheim Pharmaceuticals, Inc., priority 2003, dated 2009)", "key": {"[1]": {"test_system": "Osteocalcin Production from Osteoblast Cell Line MG-63", "experiment": "Inhibition of osteocalcin production from osteoblast cell line MG-63", "assay_type": "cell-based, human", "conditions": "MG-63 cells, Vitamin D 10 nM, 48 hours, osteocalcin ELISA", "protocol": "Representative compounds of the invention have been tested and have shown activity as modulators of the glucocorticoid receptor function in one or more of the above assays. […] 7. Inhibition of Osteocalcin Production from Osteoblast Cell Line MG-63\nHuman osteosarcoma MG-63 cells (ATCC, Cat. No. CRL-1427) are plated on 96 well plates at 20,000 cells per well the day before use in 200 μL media of 99% D-MEM/F-12 (Gibco-Invitrogen, Cat. No. 11039-021), supplemented with 1% penicillin and streptomycin (Gibco-Invitrogen, Cat. No. 15140-122), 10 μg/mL Vitamin C (Sigma, Cat. No. A4544), and 1% charcoal filtered Fetal Bovine Serum (HyClone, Cat. No. SH30068.02). The next day, wells are replaced with fresh media. Cells are treated with Vitamin D (Sigma, Cat. No. D1530) to a final concentration of 10 nM, and with the test compounds in concentrations of 10^−6 M to 10^−9 M, in a total volume of 200 μL per well. Samples are done in duplicates. […] Positive control wells receive Vitamin D only, without compounds, and represent maximum (100%) amount of osteocalcin production. Plates are incubated at 37° C. incubator for 48 hours and supernatants are harvested at the end of incubation. Amounts of osteocalcin in the supernatants are determined by the Glype osteocalcin ELISA kit (Zymed, Cat. No. 99-0054) according to manufacture's protocol. Inhibition of osteocalcin by test compounds is expressed in percentage relative to positive controls. IC50 values of the test compounds are derived by non-lineal curve fitting."}, "[2]": {"biological_target": "T1, human glucocorticoid receptor (GR) complex (Homo sapiens, UniProt P04150)", "T1 construct": "made in house; host or cells: insect expression system (baculovirus lysate)", "T1 sequence (P04150 1-777)": "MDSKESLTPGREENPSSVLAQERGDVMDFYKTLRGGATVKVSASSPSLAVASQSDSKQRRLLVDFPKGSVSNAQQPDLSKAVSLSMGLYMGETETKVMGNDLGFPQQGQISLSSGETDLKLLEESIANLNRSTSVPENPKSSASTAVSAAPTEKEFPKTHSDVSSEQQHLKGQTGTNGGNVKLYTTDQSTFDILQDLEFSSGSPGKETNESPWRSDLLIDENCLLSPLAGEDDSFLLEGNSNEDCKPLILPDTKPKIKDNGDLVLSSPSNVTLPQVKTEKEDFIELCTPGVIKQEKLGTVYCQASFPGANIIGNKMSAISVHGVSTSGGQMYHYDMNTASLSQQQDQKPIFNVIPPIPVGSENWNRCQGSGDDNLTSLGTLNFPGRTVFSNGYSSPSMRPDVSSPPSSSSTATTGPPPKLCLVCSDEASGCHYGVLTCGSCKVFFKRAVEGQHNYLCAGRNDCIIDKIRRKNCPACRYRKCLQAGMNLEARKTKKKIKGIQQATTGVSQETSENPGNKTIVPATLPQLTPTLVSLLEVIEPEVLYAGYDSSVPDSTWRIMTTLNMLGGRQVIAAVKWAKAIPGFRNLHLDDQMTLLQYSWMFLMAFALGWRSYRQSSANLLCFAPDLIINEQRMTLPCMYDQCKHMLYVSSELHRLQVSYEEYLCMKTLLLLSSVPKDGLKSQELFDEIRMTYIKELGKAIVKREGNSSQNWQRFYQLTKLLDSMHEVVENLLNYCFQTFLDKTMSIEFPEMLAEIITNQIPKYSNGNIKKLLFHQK", "experiment": "Glucocorticoid receptor competitive binding assay (fluorescence polarization)", "conditions": "competition with TAMRA-labeled dexamethasone", "outline": "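Fluorescence polarization competition against TAMRA-labelled dexamethasone (50 μL of 15 nM added) for human GR complex from baculovirus insect-cell lysate, diluted 1:170, in TES/KCl/molybdate buffer, pH 7.4.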"}}}
{"smiles": "CC(C)(CC(O)(Cn1ccc(=O)c2ccccc21)C(F)(F)F)c1cc(F)ccc1OC(F)F", "note": "(stereo not drawn) [Example 28, 1-[4-(2-difluoromethoxy-5-fluorophenyl)-2-hydroxy-4-methyl-2-trifluoromethylpentyl]-1H-quinolin-4-one]", "values": [{"measurement": "melting point", "value": "150 to 155", "unit": "°C"}]}
{"smiles": "CC(C)(CC(O)(Cn1ccc(=O)c2ccccc21)C(F)(F)F)c1cc(Br)cc2c1OCC2", "note": "(stereo not drawn) [1-[4-(5-Bromo-2,3-dihydrobenzofuran-7-yl)-2-hydroxy-4-methyl-2-trifluoromethylpentyl]-1H-quinolin-4-one]", "values": [{"measurement": "inhibit the vitamin D stimulated production of osteocalcin", "setting": "[1]", "value": "inhibit"}, {"measurement": "activity in the GR binding assay", "setting": "[2]", "value": "potent activity"}]}
{"smiles": "CCOc1ccc(F)cc1C(C)(C)CC(O)(Cn1ccc(=O)c2ccccc21)C(F)(F)F", "note": "(stereo not drawn) [Example 27, 1-[4-(2-ethoxy-5-fluorophenyl)-2-hydroxy-4-methyl-2-trifluoromethylpentyl]-1H-quinolin-4-one]", "values": [{"measurement": "melting point", "value": "195 to 196", "unit": "°C"}]}
{"smiles": "COc1ccc(F)cc1C(C)(C)CC(O)(Cn1[nH]c(=O)c2ccccc21)C(F)(F)F", "note": "(stereo not drawn) [Example 23, 1-[4-(5-fluoro-2-methoxyphenyl)-2-hydroxy-4-methyl-2-trifluoromethylpentyl]-1,2-dihydroindazol-3-one]", "values": [{"measurement": "melting point", "value": "141 to 144", "unit": "°C"}]}
{"smiles": "CC(C)(CC(O)(Cn1ccc(=O)c2ccc(F)cc21)C(F)(F)F)c1cc(F)ccc1O", "note": "(stereo not drawn) [7-Fluoro-1-[4-(5-fluoro-2-hydroxyphenyl)-2-hydroxy-4-methyl-2-trifluoromethylpentyl]-1H-quinolin-4-one]", "values": [{"measurement": "inhibit the vitamin D stimulated production of osteocalcin", "setting": "[1]", "value": "inhibit"}, {"measurement": "activity in the GR binding assay", "setting": "[2]", "value": "potent activity"}]}
{"smiles": "COc1ccc(F)cc1C(C)(C)CC(O)(Cn1cc(C)c(=O)c2ccccc21)C(F)(F)F", "note": "(stereo not drawn) [Example 26, 1-[4-(5-fluoro-2-methoxyphenyl)-2-hydroxy-4-methyl-2-trifluoromethylpentyl]-3-methyl-1H-quinolin-4-one]", "values": [{"measurement": "melting point", "value": "> 225", "unit": "°C"}]}
{"smiles": "CC(C)(CC(O)(Cn1ccc(=O)c2ccccc21)C(F)(F)F)c1cc(S(C)(=O)=O)cc2c1OCC2", "note": "(stereo not drawn) [1-[2-Hydroxy-4-(5-methanesulfonyl-2,3-dihydrobenzofuran-7-yl)-4-methyl-2-trifluoromethylpentyl]-1H-quinolin-4-one]", "values": [{"measurement": "inhibit the vitamin D stimulated production of osteocalcin", "setting": "[1]", "value": "inhibit"}, {"measurement": "activity in the GR binding assay", "setting": "[2]", "value": "potent activity"}]}
{"smiles": "CC(C)(CC(O)(Cn1ccc(=O)c2ccccc21)C(F)(F)F)c1cc(F)ccc1O", "note": "(stereo not drawn) [1-[4-(5-Fluoro-2-hydroxyphenyl)-2-hydroxy-4-methyl-2-trifluoromethylpentyl]-1H-quinolin-4-one]", "values": [{"measurement": "inhibit the vitamin D stimulated production of osteocalcin", "setting": "[1]", "value": "inhibit"}, {"measurement": "activity in the GR binding assay", "setting": "[2]", "value": "potent activity"}]}
